Laboratory results as given in US20260327225A1, “HETEROCYCLIC COMPOUNDS AS TRIGGERING RECEPTOR EXPRESSED ON MYELOID CELLS 2 AGONISTS AND METHODS OF USE” (VIGIL NEUROSCIENCE, INC., priority 2023, published 2026).

biological target: T1, human TREM2 (Homo sapiens, UniProt Q9NZC2); experiment: TREM2 agonist potency by cellular phosphorylation of Syk (AlphaLisa) in HEK293T-hTREM2 cells expressing human TREM2 and DAP12; type: cell-based; details: HEK293 cells expressing hTREM2 and DAP12; 45 minutes at room temperature; Syk phosphorylation, AlphaLisa; read-out: hTREM2 EC50
T1 construct: expressed in transfected cells; host or cells: HEK293T-hTREM2 cells (HEK cell line expressing human TREM2 and DAP12)
T1 sequence (Q9NZC2 19-230): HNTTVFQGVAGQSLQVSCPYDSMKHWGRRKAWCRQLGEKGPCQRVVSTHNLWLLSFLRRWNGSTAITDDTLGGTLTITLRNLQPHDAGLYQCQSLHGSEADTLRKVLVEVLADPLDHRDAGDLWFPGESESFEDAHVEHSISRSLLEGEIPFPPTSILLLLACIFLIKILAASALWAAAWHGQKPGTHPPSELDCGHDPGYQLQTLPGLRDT
T1 sequence (O43914 22-113 partner): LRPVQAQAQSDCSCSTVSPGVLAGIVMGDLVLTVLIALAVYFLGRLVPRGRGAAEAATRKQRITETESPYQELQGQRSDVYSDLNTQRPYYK
Method: In vitro Measurement of Triggering Receptor Expressed on Myeloid Cells 2 activity using cellular phosphorylation of Spleen Tyrosine Kinase (“Syk”) Assays
Measurement of TREM2 agonist potency was done using a HEK cell line expressing human TREM2 and DAP12 (HEK293T-hTREM2 cells). Binding of small molecules to, and activation of, TREM2 increases the phosphorylation of Syk. The resultant levels of Syk phosphorylation are measured using a commercial AlphaLisa reagent kit. To perform the assay, HEK-hTREM2 cells were plated at 14,000 cells per well in a 384 well plate, in 25 μL of complete growth media and incubated at 37° C., 5% CO2 for 20-24 hours.
Prior to the assay, test compounds were diluted in the 384 well plates in assay buffer and allowed to equilibrate for 30 minutes. Growth media was removed from cell plates by inversion on blotting paper, and 25 μL of test articles in assay buffer was added to cells. Cells were incubated for 45 minutes at room temperature. After 45 minutes, assay buffer was removed and 10 μL of lysis buffer was added. Plates were shaken for 20 minutes at 350 RPM at room temperature. After complete lysis, AlphaLisa reagents were added to the lysate, and fluourescence intensity was measured using a Perkin Elmer Envision plate reader. Intensities were used to generate a standard curve, and % activation was calculated. Curve fitting was performed using Prism v9 software, log(agonist) vs response—variable slope (four parameters), and EC50s were calculated from the curve fit.
The results presented in Table B have been generated with the in vitro assay described above. This assay may be used to test any of the compounds described herein to assess and characterize a compound's ability to act as an agonist of TREM2.

| Structure (SMILES) | EC50 |
| --- | --- |
| Cc1nc2nc([C@H]3CCO[C@@H](c4cnn(C5CC5)c4)C3)nc(-c3ccc(F)cc3F)c2cc1C(=O)O [Example 9, 4-(2,4-difluorophenyl)-7-methyl-2-[(2R,4S)-2-(1-cyclopropylpyrazol-4-yl)tetrahydropyran-4-yl]pyrido[2,3-d]pyrimidine-6-carboxylic acid] | > 500 nM |
| Cc1nc2nc(N3C[C@@H](C)O[C@@H](c4cnn(C5CC5)c4)C3)nc(C34C5C6C7C5C3C7C64)c2nc1C (stereo partly drawn) [Example 121, (2S,6R)-4-(4-cuban-1-yl-6,7-dimethyl-pteridin-2-yl)-2-(1-cyclopropylpyrazol-4-yl)-6-methyl-morpholine] | 100 to 500 nM |
| Cc1nc2nc(N3C[C@@H](C)O[C@@H](c4cnn(C5CC5)c4)C3)nc(C34CC(C(F)(F)F)(C3)C4)c2nc1C1CN(C(=O)OC(C)(C)C)C1 [Example 86, tert-butyl 3-[2-[(2S,6R)-2-(1-cyclopropylpyrazol-4-yl)-6-methyl-morpholin-4-yl]-7-methyl-4-[3-(trifluoromethyl)-1-bicyclo[1.1.1]pentanyl]pteridin-6-yl]azetidine-1-carboxylate] | > 500 nM |
| Cc1noc(-c2cc3c(C4CCCCC4)nc(N4CCO[C@@H](c5cnn(C)c5)C4)nc3nc2C)n1 [Example 44, (2S)-4-[4-cyclohexyl-7-methyl-6-(3-methyl-1,2,4-oxadiazol-5-yl)-pyrido [2,3-d]-pyrimidin-2-yl]-2-(1-methyl-pyrazol-4-yl) morpholine] | 100 to 500 nM |
| Cc1cc2c(-c3cccs3)nc(N3C[C@@H](C)O[C@@H](c4cnn(C5CC5)c4)C3)nc2nc1C [Example 69, (2S,6R)-2-(1-cyclopropyl-pyrazol-4-yl)-4-[6,7-dimethyl-4-(2-thienyl)pyrido-[2,3-d]pyrimidin-2-yl]-6-methyl-morpholine] | 100 to 500 nM |
| Cc1nc2nc(N3C[C@@H](C)O[C@@H](c4cnn(C5CC5)c4)C3)nc(-c3ccncc3F)c2nc1C [Example 96, (2S,6R)-2-(1-cyclopropylpyrazol-4-yl)-4-[4-(3-fluoro-4-pyridyl)-6,7-dimethylpteridin-2-yl]-6-methyl-morpholine] | 100 to 500 nM |
| Cc1nc2nc(C3CCOC(c4ccc5nn(C)cc5c4)C3)nc(-c3ccc(F)cc3F)c2nc1C (centres unmarked) [Example 114, 4-(2,4-difluorophenyl)-6,7-dimethyl-2-[2-(2-methylindazol-5-yl)tetrahydropyran-4-yl]pteridine] | < 100 nM |
| Cc1nc2nc(N3C[C@@H](C)O[C@@H](c4cnn(C5CC5)c4)C3)nc(C3CCCCC3)c2cc1C#N [Example 35, 4-cyclohexyl-2-[(2S,6R)-2-(1-cyclopropylpyrazol-4-yl)-6-methyl-morpholin-4-yl]-7-methyl-pyrido[2,3-d]pyrimidine-6-carbonitrile] | < 100 nM |
| Cc1nc2nc([C@H]3CCO[C@@H](c4cnn(C5CC5)c4)C3)nc(C34CC(C(F)(F)F)(C3)C4)c2cc1S(C)(=O)=O [Example 31, 2-[(2R,4S)-2-(1-cyclopropylpyrazol-4-yl)tetrahydropyran-4-yl]-7-methyl-6-methylsulfonyl-4-[3-(trifluoromethyl)-1-bicyclo[1.1.1]pentanyl]pyrido[2,3-d]pyrimidine] | < 100 nM |
| Cc1cc2c(C3CCCC3)nc(N3C[C@@H](C)O[C@@H](c4cnn(C5CC5)c4)C3)nc2nc1C [Example 65, (2S,6R)-4-(4-cyclopentyl-6,7-dimethylpyrido[2,3-d]pyrimidin-2-yl)-2-(1-cyclopropylpyrazol-4-yl)-6-methylmorpholine] | < 100 nM |
| Cc1nc2nc([C@H]3CCO[C@@H](c4cn(C)c(=O)s4)C3)nc(C34CC(C(F)(F)F)(C3)C4)c2cc1C#N (racemic) [Example 81, 7-methyl-2-[rac-(2R,4S)-2-(3-methyl-2-oxo-thiazol-5-yl)tetrahydropyran-4-yl]-4-[3-(trifluoromethyl)-1-bicyclo[1.1.1]pentanyl]pyrido[2,3-d]pyrimidine-6-carbonitrile] | < 100 nM |
| Cc1nc2nc([C@H]3CCO[C@@H](c4cnn(C5CC5)c4)C3)nc(C34CC(C(F)(F)F)(C3)C4)c2cc1F [Example 24, 2-[(2R,4S)-2-(1-cyclopropylpyrazol-4-yl)tetrahydropyran-4-yl]-6-fluoro-7-methyl-4-[3-(trifluoromethyl)-1-bicyclo[1.1.1]pentanyl]-pyrido[2,3-d]pyrimidine] | < 100 nM |

Results, then the compound that gave them:

| EC50 | Structure (SMILES) |
| --- | --- |
| < 100 nM | Cc1nc2nc(C3CCOC(C4CCn5nccc5C4)C3)nc(C34CC(C(F)(F)F)(C3)C4)c2nc1C (centres unmarked) [Example 110, 6,7-dimethyl-2-[2-(4,5,6,7-tetrahydropyrazolo[1,5-a]pyridin-5-yl)tetrahydropyran-4-yl]-4-[3-(trifluoromethyl)-1-bicyclo[1.1.1]pentanyl]pteridine] |
| < 100 nM | Cc1nc2nc(N3C[C@@H](C)O[C@@H](c4cnn(C5CC5)c4)C3)nc(C34CC(C(F)(F)F)(C3)C4)c2cc1C(F)(F)F [Example 74, (2S,6R)-2-(1-cyclopropyl-1H-pyrazol-4-yl)-6-methyl-4-(7-methyl-6-(trifluoromethyl)-4-(3-(trifluoromethyl)-bicyclo[1.1.1]pentan-1-yl)pyrido[2,3-d]pyrimidin-2-yl)morpholine] |
| < 100 nM | Cc1nc2nc([C@@H]3CCO[C@H](c4cn(C)c(=O)s4)C3)nc(C34CC(C(F)(F)F)(C3)C4)c2nc1C [Example 107, 5-[(2S,4R)-4-[6,7-dimethyl-4-[3-(trifluoromethyl)-1-bicyclo[1.1.1]pentanyl]pteridin-2-yl]tetrahydropyran-2-yl]-3-methyl-thiazol-2-one] |
| < 100 nM | Cc1noc(-c2cc3c(C4CCCCC4)nc(N4C[C@@H](C)O[C@@H](c5cnn(C6CC6)c5)C4)nc3nc2C)n1 [Example 33, (2S,6R)-4-[4-cyclohexyl-7-methyl-6-(3-methyl-1,2,4-oxadiazol-5-yl)-pyrido[2,3-d]pyrimidin-2-yl]-2-(1-cyclopropylpyrazol-4-yl)-6-methyl-morpholine] |
| < 100 nM | Cc1nc2nc(N3C[C@@H](C)O[C@@H](c4cnn(C5CC5)c4)C3)nc(C34CC(C(F)(F)F)(C3)C4)c2cc1C#N [Example 25, 2-[(2S,6R)-2-(1-cyclopropylpyrazol-4-yl)-6-methyl-morpholin-4-yl]-7-methyl-4-[3-(trifluoromethyl)-1-bicyclo[1.1.1]pentanyl]pyrido[2,3-d]pyrimidine-6-carbonitrile] |
| < 100 nM | CO/N=C(\C)c1cc2c(-c3ccc(F)cc3F)nc(N3C[C@@H](C)O[C@@H](c4cnn(C5CC5)c4)C3)nc2nc1C [Example 5, 1-[2-[(2S,6R)-2-(1-cyclopropylpyrazol-4-yl)-6-methyl-morpholin-4-yl]-4-(2,4-difluorophenyl)-7-methyl-pyrido[2,3-d]pyrimidin-6-yl]-N-methoxy-ethanimine] |
| < 100 nM | Cc1nc2nc(C3CCOC(c4cnnc(N(C)C)c4)C3)nc(C34CC(C(F)(F)F)(C3)C4)c2nc1C (racemic) [Example 129, N,N-dimethyl-5-[rac-cis-4-[6,7-dimethyl-4-[3-(trifluoromethyl)-1-bicyclo[1.1.1]pentanyl]pteridin-2-yl]tetrahydropyran-2-yl]pyridazin-3-amine] |
| < 100 nM | Cc1nnc(-c2cc3c(-c4ccc(F)cc4F)nc(N4C[C@@H](C)O[C@@H](c5cnn(C6CC6)c5)C4)nc3nc2C)s1 [Example 10, (2S,6R)-2-(1-cyclopropylpyrazol-4-yl)-4-[4-(2,4-difluorophenyl)-7-methyl-6-(5-methyl-1,3,4-thiadiazol-2-yl)pyrido[2,3-d]pyrimidin-2-yl]-6-methyl-morpholine] |
